Drawing on US10308667B2, “Oxadiazolopyridine derivatives for use as ghrelin O-acyl transferase (GOAT) inhibitors” (Boehringer Ingelheim International GmbH, priority 2016, dated 2019), this text covers IC50 for 27 molecules.

The structures appear in SMILES notation.

As a reminder, the IC50 is the concentration at which inhibition is half-maximal. A lower IC50 goes with inhibition by little substance.

Sequence of human GOAT (Q96T53 whole entry): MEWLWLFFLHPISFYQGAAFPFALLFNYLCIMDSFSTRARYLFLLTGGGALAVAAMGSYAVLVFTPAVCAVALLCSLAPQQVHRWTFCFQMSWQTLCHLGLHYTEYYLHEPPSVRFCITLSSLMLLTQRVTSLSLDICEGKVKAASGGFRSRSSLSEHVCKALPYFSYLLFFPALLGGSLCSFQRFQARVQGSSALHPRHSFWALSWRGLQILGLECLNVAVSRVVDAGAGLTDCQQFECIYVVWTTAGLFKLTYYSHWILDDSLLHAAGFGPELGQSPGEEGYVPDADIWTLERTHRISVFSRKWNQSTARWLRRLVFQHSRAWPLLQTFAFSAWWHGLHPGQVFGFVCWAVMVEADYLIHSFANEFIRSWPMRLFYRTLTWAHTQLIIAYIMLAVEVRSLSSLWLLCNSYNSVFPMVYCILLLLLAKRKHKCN

The assay deals with human GOAT (Homo sapiens (Human), UniProt Q96T53). The assay can be described thus: Determination of hGOAT Activity in HEK293 Cells after Incubation with Test Compound. Type of assay: cell-based. Particulars: HEK293 cells stably transfected with preproghrelin and human GOAT; octanoate-BSA 100 μM; acyl-ghrelin in medium by ELISA after 5 hours. Here is the method:
Determination of hGOAT Activity in HEK293 Cells after Incubation with Test Compound
HEK293 cells stably transfected with two expression vectors, one coding for preproghrelin cDNA and a second for the expression of human GOATcDNA are used as a cellular model. After feeding the cells with octanoic acid for 5 hours, acyl-ghrelin is measured in cell culture medium by an ELISA procedure.
Cellline: Hek293 hGOAT/PPGhrl Clone #1B8Sodium octanoate, Sigma, Cat.-No. C5038
BD Poly-D-Lysin 384-well Plates, black-clear polystyrene BD Bioscience Cat.-No. […] ELISA human acylated Ghrelin Kit purchased from Bertin Pharman (detailed composition of buffers e.g. wash-puffer, ELISA buffer not known)
Cells are plated with a density of 5000 cells/well in 384-well poly-D-lysin plates and incubated for 1 day at 37° C., 5% CO2 in DMEM medium, 10% FCS, 1×NEAA, Puromycin (0.5 μg/ml) and G418 (1 mg/ml). Then the medium is changed to a identical medium without FCS and containing Octanoate-BSA (final concentration 100 μM each) and compound in DMSO (final DMSO concentration 0.3%). After incubation for 5 hours acylghrelin in the medium is measured by ELISA
The medium sample is diluted 1:25 in Elisa buffer, A 25 ul aliquot is transferred to a 384-well ELISA plate previously washed 4 times with 100 μL wash buffer, and 25 μl tracer-solution is added. After incubation overnight (˜20 h) at 4° C. temperature the plate is washed 4 times with 100 μl wash-buffer per well. Finally 50 μl Ellman's reagent is added to each well and the plate is incubated in the dark for 20 minutes. The absorbance is measured at 405 nm in an Envision multilabel reader and the amount of acylated ghrelin is calculated according to a acylated ghrelin standard curve provided in the same plate.
The analysis of the data is performed by calculation of the percentage of acyl-ghrelin produced in the presence of test compound compared to the amount of acyl-ghrelin produced in the vehicle control samples. An inhibitor of the GOAT enzyme will give values between 100% CTL (no inhibition) and 0% CTL (complete inhibition). IC50 values are calculated with Assay Explorer or other suited software based on curve fitting of results of 8 different compound concentrations.
Turning to `Cc1nc2nonc2c(N)c1Cc1ncc(C#N)cn1` [Example 77, 2-(7-amino-5-methyl-[1,2,5]oxadiazolo[3,4-b]pyridin-6-ylmethyl)pyrimidine-5-carbonitrile], the IC50 worked out at 3.8 nM. As for `Cc1nc2nonc2c(N)c1Cc1ncc(C#N)c(C(F)(F)F)n1` [Example 78, 2-(7-amino-5-methyl-[1,2,5]oxadiazolo[3,4-b]pyridin-6-ylmethyl)-4-(trifluoromethyl)pyrimidine-5-carbonitril], the IC50 was found to be 0.36 nM. Under `Cc1nc2nonc2c(N)c1Cc1ncc(C#N)c(C(F)F)n1` [Example 79, 2-(7-amino-5-methyl-[1,2,5]oxadiazolo[3,4-b]pyridin-6-ylmethyl)-4-(difluoromethyl)pyrimidine-5-carbonitrile] stands 0.59 nM. Under `Cc1nc2nonc2c(N)c1Cc1ncc(C#N)c(C2CCOC2)n1` (stereo not drawn) [Example 80, 2-(7-amino-5-methyl-[1,2,5]oxadiazolo[3,4-b]pyridin-6-ylmethyl)-4-(oxolan-3-yl)pyrimidine-5-carbonitrile] stands 3.8 nM; under `Cc1nc(Cc2c(C)nc3nonc3c2N)ncc1C#N` [Example 81, 2-(7-amino-5-methyl-[1,2,5]oxadiazolo[3,4-b]pyridin-6-ylmethyl)-4-methylpyrimidine-5-carbonitrile], 7 nM; under `Cc1nc2nonc2c(N)c1Cc1ncc(C#N)c(C(C)(F)F)n1` [Example 82, 2-(7-amino-5-methyl-[1,2,5]oxadiazolo[3,4-b]pyridin-6-ylmethyl)-4-(1,1-difluoroethyl)pyrimidine-5-carbonitrile], 1 nM.

`Cc1nc2nonc2c(N)c1Cc1ncc(Br)c(C(F)(F)F)n1` [Example 83, 6-[5-bromo-4-(trifluoromethyl)pyrimidin-2-yl]methyl-5-methyl-[1,2,5]oxadiazolo[3,4-b]pyridin-7-amine]: the concentration for half-maximal inhibition (IC50) is 0.077 nM. Regarding `Cc1nc2nonc2c(N)c1Cc1ncc(Br)c(C(F)F)n1` [Example 84, 6-[5-bromo-4-(difluoromethyl)pyrimidin-2-yl]methyl-5-methyl-[1,2,5]oxadiazolo[3,4-b]pyridin-7-amine], the IC50 was determined as 0.21 nM. This IC50 lies about 2.7-fold higher than the previous one. Under `Cc1nc2nonc2c(N)c1Cc1cccc([S+](C)[O-])n1` (stereo not drawn) [Example 85, 6-(6-Methanesulfinyl-pyridin-2-ylmethyl)-5-methyl-[1,2,5]oxadiazolo[3,4-b]pyridin-7-ylamine] stands 6.9 nM; under `Cc1nc2nonc2c(N)c1Cc1cccc(S(C)(=O)=O)n1` [Example 86, 6-(6-Methanesulfonyl-pyridin-2-ylmethyl)-5-methyl-[1,2,5]oxadiazolo[3,4-b]pyridin-7-ylamine], 19 nM. Consider `Cc1nc2nonc2c(N)c1Cc1ccc([S+](C)[O-])cn1` (stereo not drawn) [Example 87, 6-(5-Methanesulfinyl-pyridin-2-ylmethyl)-5-methyl-[1,2,5]oxadiazolo[3,4-b]pyridin-7-ylamine], for which the IC50 amounted to 9 nM. Under `Cc1nc2nonc2c(N)c1Cc1ccc(S(C)(=O)=O)cn1` [Example 88, 6-(5-Methanesulfonyl-pyridin-2-ylmethyl)-5-methyl-[1,2,5]oxadiazolo[3,4-b]pyridin-7-ylamine] stands 3.3 nM; under `Cc1nc2nonc2c(N)c1Cc1ccc(C(F)(F)F)c(C(N)=O)n1` [Example 89, 6-(7-Amino-5-methyl-[1,2,5]oxadiazolo[3,4-b]pyridin-6-ylmethyl)-3-trifluoromethyl-pyridine-2-carboxylic Acid Amide], 0.43 nM. Under `Cc1nc2nonc2c(N)c1Cc1ccc(OC(F)F)c(C(N)=O)n1` [Example 90, 6-(7-Amino-5-methyl-[1,2,5]oxadiazolo[3,4-b]pyridin-6-ylmethyl)-3-difluoromethoxy-pyridine-2-carboxylic Acid Amide] stands 0.54 nM; under `Cc1nc2nonc2c(N)c1Cc1ccc(Br)c(OCC2(C)COC2)n1` [Example 95, 6-[5-Bromo-6-(3-methyl-oxetan-3-ylmethoxy)-pyridin-2-ylmethyl]-5-methyl-[1,2,5]oxadiazolo[3,4-b]pyridin-7-ylamine], 0.082 nM; under `COc1nc(Cc2c(C)nc3nonc3c2N)ccc1Br` [Example 97, 6-(5-Bromo-6-methoxy-pyridin-2-ylmethyl)-5-methyl-[1,2,5]oxadiazolo[3,4-b]pyridin-7-ylamine], 0.022 nM. The value for `Cc1nc2nonc2c(N)c1Cc1ccc(Br)c(OC2COC2)n1` [Example 98, 6-[5-Bromo-6-(oxetan-3-yloxy)-pyridin-2-ylmethyl]-5-methyl-[1,2,5]oxadiazolo[3,4-b]pyridin-7-ylamine] was 1.9 nM; that for `Cc1nc2nonc2c(N)c1Cc1ccc(Br)c(OCC(C)(F)F)n1` [Example 99, 6-[5-Bromo-6-(2,2-difluoro-propoxy)-pyridin-2-ylmethyl]-5-methyl-[1,2,5]oxadiazolo[3,4-b]pyridin-7-ylamine] was 0.072 nM; that for `Cc1nc2nonc2c(N)c1Cc1ccc(Br)c(OCCF)n1` [Example 100, 6-[5-Bromo-6-(2-fluoro-ethoxy)-pyridin-2-ylmethyl]-5-methyl-[1,2,5]oxadiazolo[3,4-b]pyridin-7-ylamine] was 0.034 nM. In turn, `Cc1nc2nonc2c(N)c1Cc1ccc(Br)c(OCCCF)n1` [Example 101, 6-[5-Bromo-6-(3-fluoro-propoxy)-pyridin-2-ylmethyl]-5-methyl-[1,2,5]oxadiazolo[3,4-b]pyridin-7-ylamine] returned an IC50 of 0.074 nM. For the molecule `CSc1nc(Cc2c(C)nc3nonc3c2N)ccc1Br` [Example 102, 6-(5-Bromo-6-methylsulfanyl-pyridin-2-ylmethyl)-5-methyl-[1,2,5]oxadiazolo[3,4-b]pyridin-7-ylamine], the IC50 came to 0.074 nM. The value for `Cc1nc2nonc2c(N)c1Cc1ccc(C#N)c(OCC(C)(F)F)n1` [Example 103, 6-(7-Amino-5-methyl-[1,2,5]oxadiazolo[3,4-b]pyridin-6-ylmethyl)-2-(2,2-difluoro-propoxy)-nicotinonitrile] was 0.086 nM; that for `Cc1nc2nonc2c(N)c1Cc1ccc(C#N)c(OC2COC2)n1` [Example 104, 6-(7-Amino-5-methyl-[1,2,5]oxadiazolo[3,4-b]pyridin-6-ylmethyl)-2-(oxetan-3-yloxy)-nicotinonitrile] was 0.98 nM; that for `Cc1nc2nonc2c(N)c1Cc1ccc(C#N)c(OCC(C)(C)O)n1` [Example 105, 6-(7-Amino-5-methyl-[1,2,5]oxadiazolo[3,4-b]pyridin-6-ylmethyl)-2-(2-hydroxy-2-methyl-propoxy)-nicotinonitrile] was 0.12 nM. The value for `Cc1nc2nonc2c(N)c1Cc1ccc(C#N)c(OCCF)n1` [Example 106, 6-(7-Amino-5-methyl-[1,2,5]oxadiazolo[3,4-b]pyridin-6-ylmethyl)-2-(2-fluoro-ethoxy)-nicotinonitrile] was 0.11 nM; that for `Cc1nc2nonc2c(N)c1Cc1ccc(C#N)c(OCC(F)(F)F)n1` [Example 107, 6-(7-Amino-5-methyl-[1,2,5]oxadiazolo[3,4-b]pyridin-6-ylmethyl)-2-(2,2,2-trifluoro-ethoxy)-nicotinonitrile] was 0.33 nM; that for `Cc1nc2nonc2c(N)c1Cc1ccc(C#N)c(OCCCF)n1` [Example 108, 6-(7-Amino-5-methyl-[1,2,5]oxadiazolo[3,4-b]pyridin-6-ylmethyl)-2-(3-fluoro-propoxy)-nicotinonitrile] was 0.026 nM.
